In patent US20080119492A1, “Compositions and methods for treating cancer and other diseases characterized by abnormal cell proliferation” (priority 2005, published 2008):

Tests used:
GBM tumor cells = assay: Clonogenic survival, ThAcr2 combined with radiation, schedule of combination; format: cell-based, human
Procedure: (§1) To explore the effect of ThAcr2 in combination with ionizing radiation on GBM cells, clonogenic survival of SF 763 and SF 767 cells was analyzed. Although both cell lines were radio-resistant, the surviving fraction after 2 Gy was greater in SF 763 (80%) than in SF 767 cells (56%), indicating stronger resistance of SF 763 cells to radiation.
(§2) For combination experiments, non-toxic sub-apoptotic ThAcr2 concentrations of 0.5 and 1 μM were utilized. […] SF 763 cells were treated with […] ThAcr2 for 7 days, then replated and irradiated with a 3 Gy-dose of X-rays. SF 767 cells were treated with 0.5 μM ThAcr2 for 14 days, then replated and irradiated with a 2-Gy dose. […] The combination of ThAcr2 with radiation was additive when the ThAcr2 treatment started after irradiation.

GBM cells = assay: Flow cytometry of cell cycle distribution and apoptosis (annexin-propidium iodide); format: cell-based, human; conditions: 7 days
Procedure: Using flow cytometry, cell cycle distribution and apoptosis in cells treated for 7 days with 0.5-2 μM ThAcr2 were examined. […] The percentage of cells in the G2/M phase increased from 10% to 20%. The annexin-propidium iodide (apoptotic) fraction was essentially identical (9-11%) in control and treated cells at lower ThAcr2 concentrations ([…]) but increased to 34% in cells treated with 2 μM ThAcr2.

glioblastoma cells = assay: Administration of compositions comprising ThAcr2 to glioblastoma cells; format: cell-based
SF 763 cell = assay: Cytogenetic analysis of telomere fusions; format: cell-based, human
Procedure: The fusion frequency was 0.3 in untreated cells and 1.6 in ThAcr2-treated cells.
(§3) The effects of 1 μM ThAcr2 on telomere and telomerase after 7 and 14 days of treatment were evaluated.

SF 763 cells [1] = assay: Clonogenic survival, ThAcr2 combined with X-rays; format: cell-based, human; conditions: 1 μM ThAcr2 for 7 days, replated, 3 Gy X-rays, corrected for ThAcr2 alone
Procedure: as §1, §2

SF 767 cells [2] = assay: Clonogenic survival, ThAcr2 combined with X-rays; format: cell-based, human; conditions: 0.5 μM ThAcr2 for 14 days, replated, 2-Gy X-rays, corrected for ThAcr2 alone
Procedure: as §1, §2

SF 763 cells [3] = assay: Long-term (50 days) treatment with ThAcr2; format: cell-based, human; conditions: from day 30
Procedure: (§4) To further investigate the tumor-growth inhibition effect of ThAcr2 as a single agent, the GBM cells were exposed to 1 μM ThAcr2 for 50 days.

SF 767 cells [4] = assay: Long-term (50 days) treatment with ThAcr2; format: cell-based, human; conditions: 1 μM ThAcr2 for 50 days, from day 30
Procedure: as §4

[5] = test system: model guanine quadruplexes inspired from human telomeres; assay: Affinity for guanine quadruplexes; format: binding; conditions: 1:2 mixture of mono- and di-cation species
Excerpt: U-shaped molecules holding two potentially intercalating units 7 Å apart have been designed to have a moderate affinity for duplex DNA on the basis of the nearest neighbor exclusion principle but may display strong binding affinity for other architectures such as guanine quadruplexes.

SF 763 cells [6] = assay: Growth of GBM cells in continuous 14-day culture with ThAcr2; format: cell-based, human; conditions: 0.5, 1 and 2 μM ThAcr2, continuous 14 days, more pronounced effect on SF 763
Procedure: (§5) GBM cells were maintained in culture for 14 days in the presence of 0.5, 1 and 2 μM ThAcr2.

SF 767 cells [7] = assay: as above; format: cell-based, human; conditions: 0.5, 1 and 2 μM ThAcr2, continuous 14 days
Procedure: as §5

[8] = test system: telomere and telomerase (hTERT) in GBM cell lines SF 763 and SF 767; assay: Effects on telomere and telomerase (telomere length, hTERT expression by real-time RT-PCR); format: cell-based, human; conditions: 1 μM ThAcr2, 7 and 14 days
Procedure: as §3

[9] = test system: GBM cell lines SF 763 and SF 767; assay: Short-term (3 days) cell viability; format: cell-based, human; conditions: 0.5, 1 and 2 μM

4,6-bis-(6-(10-N-methylacrid-9-ylinium)pyridin-2-yl)-pyrimidine bistriflate [ThAcr2]
clonogenic survival with combination therapy versus radiation alone (GBM tumor cells; FIG. 4, P<0.001): markedly decreased | combination of ThAcr2 with radiation (GBM tumor cells; ThAcr2 treatment started after irradiation): additive | combination of ThAcr2 with radiation (GBM tumor cells; cells continuously treated before and after irradiation): supra-additive or had a synergistic effect | annexin-propidium iodide (apoptotic) fraction (GBM cells; 2 μM ThAcr2): 34% | percentage of cells in the G2/M phase (GBM cells; 0.5-2 μM ThAcr2, untreated 10%): 20% | annexin-propidium iodide (apoptotic) fraction (GBM cells; lower ThAcr2 concentrations (0.5 and 1 μM), identical in control): 9-11% | glioblastoma cells after administration (glioblastoma cells): reduction of glioblastoma cells | telomere fusions (cytogenetic analysis) (SF 763 cell; 1 μM ThAcr2, day 7): multiple telomere fusions | telomere fusion frequency (SF 763 cell; SF 763 metaphase, FIG. 3, untreated cells 0.3): 1.6 | reduction of surviving fraction of tumor cells (SF 763 cells [1]): 2.5 fold | reduction of surviving fraction of tumor cells (SF 767 cells [2]): 2.3 fold | rate of cell proliferation after long-term treatment (SF 763 cells [3]; 1 μM ThAcr2 for 50 days): increase in the rate of cell proliferation | overexpression of telomerase (SF 763 cells [3]; 1 μM ThAcr2 long-term): up to 7 fold | rate of cell proliferation after long-term treatment (SF 767 cells [4]): increase in the rate of cell proliferation | affinity for model guanine quadruplexes [5]: strong affinity | tumor cell growth (SF 763 cells [6]): inhibited tumor cell growth | tumor cell growth (SF 767 cells [7]): inhibited tumor cell growth | telomere length [8]: did not reduce telomere length | short-term cell viability [9]: non-toxic
